Results: patent US20150272939A1, “Identification of Small Molecule Inhibitors of Jumonji AT-Rich Interactive Domain 1A (JARID1A) and 1B (JARID1B) Histone Demethylase” (Yale University, priority 2012, published 2015)
Where two headings read alike, the source gives them in different places.

Tests used:
JARID1B = target: T1, JARID1B (Homo sapiens, UniProt Q9UGL1); test: FLAG-JARID1B histone demethylase assay with AlphaScreen detection (HTS and dose response); assay type: biochemical; conditions: for inhibition at 20 µM: read-out: Inhibitory effect (percent);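 for Assay Signal (percent): compound tested at 20 µM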;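 for Assay − Artifact Signal (percent): compound tested at 20 µM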;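 for all read-outs here: FLAG-tagged JARID1B at 4 nM acting on a biotinylated H3K4me3 peptide, demethylation read by AlphaScreen luminescence, with hits checked against bio-H3K4me2 without enzyme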
T1 construct: The FLAG tagged full length JARID1B enzyme was expressed in Sf21 insect cells using FLAG-JARID1B baculoviruses; FLAG (N); made in house; host or cells: Sf21 insect cells (baculovirus)

[1] = AlphaScreen counterscreen against bio-H3K4me2 peptide in the absence of enzyme (artifact signal); conditions: for Artifact Signal (percent): effect of the compound when incubated with bio-H3K4me2 peptide (counterscreen, no enzyme); for Artifact signal: effect of the compound when it is incubated with bio-H3K4me2 peptide: counterscreen, no enzyme;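 for all read-outs here: counterscreen run without enzyme against bio-H3K4me2 peptide to remove false positive hits from the JARID1 demethylase AlphaScreen screen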
[2] = assay signal minus artifact signal
[3] = high-throughput screen, compound 20 μM, standard demethylase conditions (10 μM α-KG, 50 μM Fe (II))
[4] = validation of HTS actives, effect of compound in JARID1B AlphaScreen assay
[5] = validation of HTS actives, total signal before subtraction of artifact signal

T1 sequence (Q9UGL1 whole entry): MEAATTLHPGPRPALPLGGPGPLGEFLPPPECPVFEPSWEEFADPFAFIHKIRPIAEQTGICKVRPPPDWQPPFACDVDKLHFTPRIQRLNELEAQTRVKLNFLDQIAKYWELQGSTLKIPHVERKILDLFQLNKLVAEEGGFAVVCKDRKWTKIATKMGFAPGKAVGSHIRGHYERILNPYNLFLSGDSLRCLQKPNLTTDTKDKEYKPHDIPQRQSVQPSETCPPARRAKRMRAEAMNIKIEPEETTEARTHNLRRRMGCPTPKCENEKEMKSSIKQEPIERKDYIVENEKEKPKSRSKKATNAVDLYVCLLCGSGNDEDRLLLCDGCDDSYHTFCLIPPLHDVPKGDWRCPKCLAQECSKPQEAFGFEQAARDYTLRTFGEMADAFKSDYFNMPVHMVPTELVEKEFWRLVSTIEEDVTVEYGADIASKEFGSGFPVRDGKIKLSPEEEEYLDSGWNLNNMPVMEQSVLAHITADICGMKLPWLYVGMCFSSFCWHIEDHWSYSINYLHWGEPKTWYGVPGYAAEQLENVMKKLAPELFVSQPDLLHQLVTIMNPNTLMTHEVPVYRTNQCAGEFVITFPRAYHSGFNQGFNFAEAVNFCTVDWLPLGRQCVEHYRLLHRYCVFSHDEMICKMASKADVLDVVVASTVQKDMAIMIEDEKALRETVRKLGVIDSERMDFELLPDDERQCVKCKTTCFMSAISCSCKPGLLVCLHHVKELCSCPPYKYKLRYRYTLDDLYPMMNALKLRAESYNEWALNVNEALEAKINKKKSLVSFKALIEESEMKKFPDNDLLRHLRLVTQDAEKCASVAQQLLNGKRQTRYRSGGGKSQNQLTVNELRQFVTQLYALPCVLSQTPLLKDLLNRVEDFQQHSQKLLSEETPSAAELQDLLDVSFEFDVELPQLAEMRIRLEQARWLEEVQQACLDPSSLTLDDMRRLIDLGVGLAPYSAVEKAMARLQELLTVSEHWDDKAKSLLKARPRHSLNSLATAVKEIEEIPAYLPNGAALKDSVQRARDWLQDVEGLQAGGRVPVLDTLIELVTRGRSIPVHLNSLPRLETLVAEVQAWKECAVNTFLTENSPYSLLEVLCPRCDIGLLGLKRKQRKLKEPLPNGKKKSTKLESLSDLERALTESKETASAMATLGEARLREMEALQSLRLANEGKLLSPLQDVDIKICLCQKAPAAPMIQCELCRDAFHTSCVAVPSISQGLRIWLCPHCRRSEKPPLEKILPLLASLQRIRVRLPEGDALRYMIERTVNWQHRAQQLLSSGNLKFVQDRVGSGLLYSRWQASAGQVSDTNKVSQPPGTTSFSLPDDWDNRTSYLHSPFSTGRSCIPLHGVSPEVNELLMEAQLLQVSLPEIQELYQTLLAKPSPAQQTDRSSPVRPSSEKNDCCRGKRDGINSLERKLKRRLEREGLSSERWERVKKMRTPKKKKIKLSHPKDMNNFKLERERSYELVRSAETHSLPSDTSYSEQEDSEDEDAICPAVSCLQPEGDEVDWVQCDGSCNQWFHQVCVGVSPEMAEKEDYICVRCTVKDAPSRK

Row | Assay − Artifact Signal (percent) (JARID1B; [2]) | inhibition at 20 µM (JARID1B; [3]) | Assay Signal (percent) (JARID1B; [4]) | Artifact Signal (percent) [1] | Artifact signal: effect of the compound when it is incubated with bio-H3K4me2 peptide [1] | Molecule | further results
1 | 11.14% | 56% | 47.38% | 36.24% | – | Oc1c(C(Nc2ccccc2Cl)c2cccnc2)ccc2cccnc12 (stereo not drawn) [YU172164] | –
2 | 14.24% | 42.3% | 43.01% | 28.76% | – | Oc1c(C(Nc2ccc(Cl)cc2)c2cccnc2)ccc2cccnc12 (stereo not drawn) [YU172165] | –
3 | – | 37.1% | – | – | 37.50 | CCOC(=O)c1ccc(NC(c2cccnc2)c2ccc3cccnc3c2O)cc1 (stereo not drawn) [YU172168] | Validation result of HTS active: effect of the compound in the JARID1B AlphaScreen demethylase assay (JARID1B; [5]): 44.99
4 | – | 60.1% | – | – | 56.78 | COC(=O)c1cccc(NC(c2cccnc2)c2ccc3cccnc3c2O)c1 (stereo not drawn) [YU172172] | Validation result of HTS active: effect of the compound in the JARID1B AlphaScreen demethylase assay (JARID1B; [5]): 63.48
5 | 8.53% | 72.3% | 46.45% | 37.93% | – | Cc1cccc(NC(c2ccccn2)c2ccc3cccnc3c2O)n1 (stereo not drawn) [YU172178] | –
6 | 37.18% | 83.1% | 42.73% | 3.56% | – | Clc1ccc2nc(-c3ccccn3)c(Nc3ccc4c(c3)OCO4)n2c1 [YU173003] | –
7 | 48.80% | 94% | 49.67% | 0.87% | – | Clc1ccc2nc(-c3ccccn3)c(Nc3ccc4c(c3)OCCO4)n2c1 [YU173004] | –
8 | 36.06% | – | 40.22% | 4.16% | – | Cc1noc2c1C(c1ccc(O)c(O)c1)C1=C(CCCC1=O)N2 (stereo not drawn) [YU183529] | –
9 | 36.51% | 46.5% | 38.23% | 1.72% | – | Cc1noc2c1C(c1ccc(O)c(O)c1)C1=C(CC(C)(C)CC1=O)N2 (stereo not drawn) [YU185530] | –
10 | – | 63.8% | – | – | 11.63 | CCCCC(=O)Nc1ccc(N2CCC(C(N)=O)(N3CCCCC3)CC2)c(C(=O)O)c1 [YU208194] | Validation result of HTS active: effect of the compound in the JARID1B AlphaScreen demethylase assay (JARID1B; [5]): 17.11
11 | – | 52.9% | – | – | 8.81 | CC(=O)Nc1ccc(N2CCC(C(N)=O)(N3CCCCC3)CC2)c(C(=O)O)c1 [YU208195] | Validation result of HTS active: effect of the compound in the JARID1B AlphaScreen demethylase assay (JARID1B; [5]): 14.20
12 | – | 38.5% | – | – | 17.72 | CC(=O)Nc1ccc(N(C)CCCc2c(C)nn(C)c2C)c(C(=O)O)c1 [YU208230] | Validation result of HTS active: effect of the compound in the JARID1B AlphaScreen demethylase assay (JARID1B; [5]): 24.45
13 | 9.53% | 50.2% | 36.49% | 26.96% | – | O=C(Nc1ccc(N2CCC(c3ccccc3)C2)c(C(=O)O)c1)c1cccc(Cl)c1 (stereo not drawn) [YU208239] | –
14 | 36.99% | 45.1% | 52.16% | 15.17% | – | O=c1c(O[C@@H]2O[C@H](CO)[C@@H](O)[C@H](O)[C@H]2O)c(-c2ccc(O)c(O)c2)oc2cc(O)cc(O)c12 [YU221011, Isoquercitrin, reference compound] | –
15 | 41.83% | 44.9% | 51.29% | 9.46% | – | O=c1c(O[C@@H]2O[C@H](CO)[C@H](O)[C@H](O)[C@H]2O)c(-c2ccc(O)c(O)c2)oc2cc(O)cc(O)c12 [YU221013, HYPEROSIDE, reference compound] | –
16 | 23.33% | 58.7% | 30.40% | 7.07% | – | O=C1C=CC(=O)[C@@H](Br)[C@@H]1Br [YU221139] | –

Continued, molecule first:

Row | Molecule | Assay − Artifact Signal (percent) (JARID1B; [2]) | inhibition at 20 µM (JARID1B; [3]) | Assay Signal (percent) (JARID1B; [4]) | Artifact Signal (percent) [1] | Artifact signal: effect of the compound when it is incubated with bio-H3K4me2 peptide [1] | further results
17 | Cc1cccc(NC(c2cccnc2)c2ccc3cccnc3c2O)c1 (stereo not drawn) [YU172169] | 11.78% | 72.7% | 73.22% | 61.44% | – | –
18 | Cc1cccc(NC(c2ccncc2)c2ccc3cccnc3c2O)c1 (stereo not drawn) [YU172170] | 16.90% | 70% | 65.09% | 48.19% | – | –
19 | Cc1ccc(NC(c2cccnc2)c2ccc3cccnc3c2O)cc1C (stereo not drawn) [YU172173] | – | 40% | – | – | 37.31 | Validation result of HTS active: effect of the compound in the JARID1B AlphaScreen demethylase assay (JARID1B; [5]): 44.79
20 | COc1ccc(C)cc1NC(c1cccnc1)c1ccc2cccnc2c1O (stereo not drawn) [YU172175] | 11.16% | 48.5% | 48.09% | 36.93% | – | –
21 | Cc1cccc(NC(c2cccnc2)c2ccc3cccnc3c2O)n1 (stereo not drawn) [YU172179] | 10.43% | 58.1% | 63.74% | 53.31% | – | –
22 | Cc1[nH]c2nc(C(F)(F)F)nn2c(=O)c1C [YU172199] | 42.72% | 62.4% | 38.73% | −4.00% | – | –
23 | c1ccc(-c2nc3ccccn3c2Nc2ccc3c(c2)OCCO3)nc1 [YU172999] | 88.40% | 96.7% | 98.42% | 10.03% | – | –
24 | CCC(=O)Nc1ccc(N2CCC(C(N)=O)(N3CCCCC3)CC2)c(C(=O)O)c1 [YU208193] | 11.50% | 46.1% | 27.63% | 16.13% | – | –
25 | CCC(=O)Nc1ccc(N2CCCC2)c(C(=O)O)c1 [YU208199] | 17.19% | 63.4% | 50.16% | 32.96% | – | –
26 | O=C(Nc1ccc(N2CCCC2)c(C(=O)O)c1)c1ccc(Br)cc1 [YU208200] | – | 53% | – | – | 20.10 | Validation result of HTS active: effect of the compound in the JARID1B AlphaScreen demethylase assay (JARID1B; [5]): 24.86
27 | O=C(Nc1ccc(N2Cc3ccccc3OC(c3ccccc3)C2)c(C(=O)O)c1)c1ccccc1F (stereo not drawn) [YU208213] | – | – | – | – | 32.32 | Validation result of HTS active: effect of the compound in the JARID1B AlphaScreen demethylase assay (JARID1B; [5]): 37.72
28 | CCC(=O)Nc1ccc(N(C)CCCc2c(C)nn(C)c2C)c(C(=O)O)c1 [YU208228] | – | 43.4% | – | – | 20.21 | Validation result of HTS active: effect of the compound in the JARID1B AlphaScreen demethylase assay (JARID1B; [5]): 24.80
29 | CCCCC(=O)Nc1ccc(N(C)CCc2c(C)nn(C)c2C)c(C(=O)O)c1 [YU208232] | 19.26% | 50.5% | 37.92% | 18.67% | – | –
30 | Cc1ccc(C(=O)Nc2cnc(N3CCN(c4ccccc4Cl)CC3)c(C(=O)O)c2)cc1 [YU208246] | 10.41% | 44.5% | 10.32% | −0.08% | – | –
31 | O=C(Nc1cnc(N2CCN(c3ccccc3Cl)CC2)c(C(=O)O)c1)c1ccc(F)cc1 [YU208247] | – | 51.5% | – | – | 0.47 | Validation result of HTS active: effect of the compound in the JARID1B AlphaScreen demethylase assay (JARID1B; [5]): 7.92
32 | CCC(=O)Nc1cnc(N2CCN(c3ccc(Cl)cc3)CC2)c(C(=O)O)c1 [YU208250] | 14.69% | 44.5% | 21.70% | 7.01% | – | –
33 | CCC1=C[C@H]2CN(C1)Cc1c([nH]c3ccccc13)[C@@](C(=O)OC)(c1cc3c(cc1OC)N(C)[C@H]1[C@@](O)(C(=O)OC)[C@H](OC(C)=O)[C@]4(CC)C=CC[N@]5CC[C@]31[C@@H]54)C2.O=C(O)C(O)C(O)C(=O)O [YU221030, V[…], reference compound] | – | – | – | 18.13% | – | Assay Signal (percent) (JARID1B): 38.77%; Assay − Artifact Signal (percent) (JARID1B): 20.64%; inhibition at 20 µM (JARID1B): 42.2%
34 | CC[C@]1(O)C[C@H]2CN(CCc3c([nH]c4ccccc34)[C@@](C(=O)OC)(c3cc4c(cc3OC)N(C=O)[C@H]3[C@@](O)(C(=O)OC)[C@H](OC(C)=O)[C@]5(CC)C=CCN6CC[C@]43[C@@H]65)C2)C1.O=S(=O)(O)O [YU221071, VINCRISTINE SULFATE, reference compound] | – | – | – | – | −1.27 | Inhibitory effect (percent) (JARID1B): 44.20%; Validation effect minus artifact signal (JARID1B): 1.86; Validation result of HTS active: effect of the compound in the JARID1B AlphaScreen demethylase assay (JARID1B): 0.59
35 | COC(=O)c1cc(Br)c(OCc2ccccc2)c(CO[Si](C(C)(C)C)(C(C)(C)C)C(C)(C)C)c1OCc1ccccc1 [YU221143] | 26.59% | 40.9% | 22.60% | −3.99% | – | –
36 | O=C(O)c1ccnc(C(=O)O)c1 [YU221215, 2,4-Pyridinedicarboxylic Acid, reference compound] | 96.69% | – | 99.69% | 3.00% | – | inhibition at 20 µM (JARID1B; high-throughput screen, compound 20 μM, IDs marked *: additional hits under reaction condition with 1 mM α-KG): 40.8%
37 | BACITRACIN [YU033699, reference compound] | – | – | – | – | −1.65 | Inhibitory effect (percent) (JARID1B; [3]): 74.07%; Validation result of HTS active: effect of the compound in the JARID1B AlphaScreen demethylase assay (JARID1B; [5]): 6.01
